Where “and” joins values, the source holds several entries; their conditions need not be identical. Identical values can stand only once.
How the values were obtained:
[1] = system: P. aeruginosa PAO1; test: Selleck library screen in presence of sub-inhibitory polymyxin B/trimethoprim; assay type: cell-based, Pseudomonas aeruginosa; design: key: Growth (+); no growth (−); conditions: for P. aeruginosa growth, 5 μM: drug 5 μM in presence of 0.2 μg ml^−1 polymyxin B/trimethoprim; for P. aeruginosa growth, 50 μM: drug 50 μM in presence of 0.2 μg ml^−1 polymyxin B/trimethoprim
Protocol: (§1) To identify agents that potentiate the antimicrobial activity of polymyxin B/trimethoprim we first determined the highest concentration of the polymyxin B/trimethoprim combination that allowed growth of P. aeruginosa strain PAO1 and S. aureus strain UAMS-1.
For Selleck library screening, individual wells of 96-well microtiter plates containing 88 μl of fresh media were inoculated with approximately 10^5 CFUs of P. aeruginosa strain PAO1 or S. aureus UAMS-1. Next, 2 μl of polymyxin B/trimethoprim was added to a final concentration of 0.2 μg ml^−1 or 1.25 μg ml^−1 for PA01 and UAMS-1, respectively. Library members were then added at either 5 μM or 50 μM final concentration. Plates were incubated at 37° C. for 16 hours and hits were identified as wells with no visible growth. […]

[2] = system: S. aureus UAMS-1 biofilms; test: Biofilm susceptibility; assay type: cell-based, Staphylococcus aureus; conditions: established S. aureus biofilm
Excerpt: Bacterial strains used in these studies include the conventional laboratory strains Pseudomonas aeruginosa PA01 and Staphylococcus aureus UAMS-1, both of which are antibiotic susceptible and capable of forming robust biofilms. See […], Thomas J R, Nelson […]. Role of the accessory gene regulator (agr) in pathogenesis of staphylococcal osteomyelitis. Infection and immunity 1995; 63:3373-3380. Seven clinical keratitis isolates of Pseudomonas aeruginosa, were collected from the Flaum Eye Institute, Rochester N.Y. and 25 clinical isolates of Staphylococcus aureus from geographically distinct regions of the country where purchased from International Health Management Associates (IHMA; Schaumburg, Ill.). For experiments requiring planktonic cultures, the indicated organism was grown overnight in Luria-Bertani broth (LB; […] Biofilms were established by inoculating individual wells of flat-bottom polystyrene plates (Falcon, Corning Life Sciences; Durham, N.C.) with overnight cultures of the indicated organism into 200 ul of fresh LB to a final concentration of 1×10^7 CFU ml^-1. Plates were placed in a 37° C.-humidified incubator for 72 hours to allow static biofilm formation. Non-adherent cells were aspirated and biofilms were washed twice with phosphate-buffered saline prior to each experiment. […] After 24 hrs the remaining media and non-adherent cells were removed, biofilms were suspended in 0.8% NaCl and plated to quantify surviving bacteria. […] Biofilms were treated in increasing increments ranging from 0 to 64×MIC.

[3] = system: planktonic P. aeruginosa cells; test: Antimicrobial kill curves; assay type: cell-based, Pseudomonas aeruginosa; conditions: 2× MIC; for reduction in CFU at hour 4: 4 hours post-treatment
Protocol: Overnight cultures of the indicated organism were used to inoculate (1:100 dilution) 100 ml of fresh media and grown to mid-exponential phase. […] Aliquots were taken at 1, 2, 3, 4, and 24 hours, serial diluted and plated for colony forming units.

[4] = system: S. aureus UAMS-1; test: Selleck library screen in presence of sub-inhibitory polymyxin B/trimethoprim; assay type: cell-based, Staphylococcus aureus; design: key: Growth (+); no growth (−); conditions: for S. aureus growth, 5 μM: drug 5 μM in presence of 1.2 μg ml^−1 polymyxin B/trimethoprim; for S. aureus growth, 50 μM: drug 50 μM in presence of 1.2 μg ml^−1 polymyxin B/trimethoprim
Protocol: as §1
For Selleck library screening, individual wells of 96-well microtiter plates containing 88 μl of fresh media were inoculated with approximately 10^5 CFUs of P. aeruginosa strain PAO1 or S. aureus UAMS-1. Next, 2 μl of polymyxin B/trimethoprim was added to a final concentration of 0.2 μg ml^−1 or 1.25 μg ml^−1 for PA01 and UAMS-1, respectively. Library members were then added at either 5 μM or 50 μM final concentration. Plates were incubated at 37° C. for 16 hours and hits were identified as wells with no visible growth.
To do so, 10^5 CFUs of S. aureus strain UAMS-1 were inoculated in individual wells of a microtiter plate supplemented with 1.2 μg ml^−1 of polymyxin B/trimethoprim, (0.25×MIC). Library members were added at low (5 μM) or high (50 μM) concentrations and then scored for agents that inhibited growth following overnight incubation. Such agents were expected to represent compounds that display antimicrobial activity on their own and/or that potentiate the antimicrobial activity of polymyxin B/trimethoprim.

[5] = system: P. aeruginosa; test: Fractional inhibitory concentration, checkerboard MIC; assay type: cell-based, Pseudomonas aeruginosa; conditions: for MIC: Pseudomonas aeruginosa
[6] = system: P. aeruginosa strain PA01 biofilms; test: Biofilm susceptibility; assay type: cell-based, Pseudomonas aeruginosa; conditions: established PA01 biofilm, 24 hrs treatment, 32×MIC
Excerpt: Bacterial strains used in these studies include the conventional laboratory strains Pseudomonas aeruginosa PA01 and Staphylococcus aureus UAMS-1, both of which are antibiotic susceptible and capable of forming robust biofilms. See […], Thomas J R, Nelson […]. Role of the accessory gene regulator (agr) in pathogenesis of staphylococcal osteomyelitis. Infection and immunity 1995; 63:3373-3380. Seven clinical keratitis isolates of Pseudomonas aeruginosa, were collected from the Flaum Eye Institute, Rochester N.Y. and 25 clinical isolates of Staphylococcus aureus from geographically distinct regions of the country where purchased from International Health Management Associates (IHMA; Schaumburg, Ill.). […] After 24 hrs the remaining media and non-adherent cells were removed, biofilms were suspended in 0.8% NaCl and plated to quantify surviving bacteria. […] Biofilms were treated in increasing increments ranging from 0 to 64×MIC.

Structure (SMILES): CO[C@H]1/C=C/O[C@@]2(C)Oc3c(C)c(O)c4c(O)c(c(/C=N/N5CCN(C)CC5)c(O)c4c3C2=O)NC(=O)/C(C)=C\C=C\[C@H](C)[C@H](O)[C@@H](C)[C@@H](O)[C@@H](C)[C@H](OC(C)=O)[C@@H]1C [Rifampicin, rifampicin]
- P. aeruginosa growth, 5 μM [1]: −
- P. aeruginosa growth, 50 μM [1]: −
- reduction in biofilm-associated CFU ([2]; 24 hrs treatment, 32×MIC): 4 log
- reduction in CFU at hour 4 [3]: 6 log
- S. aureus growth, 5 μM [4]: −
- S. aureus growth, 50 μM [4]: −
- MIC in combination ([5]; P. aeruginosa PAO1, PT combined with rifampicin): 1.9 µg/mL
- MIC in combination ([5]; P. aeruginosa RW01, PT combined with rifampicin): 1.9 µg/mL
- MIC in combination ([5]; P. aeruginosa RW02, PT combined with rifampicin): 1.9 µg/mL
- MIC in combination ([5]; P. aeruginosa RW03, PT combined with rifampicin): 3.9 µg/mL
- MIC in combination ([5]; P. aeruginosa RW04, PT combined with rifampicin): 1.9 µg/mL
- MIC in combination ([5]; P. aeruginosa RW05, PT combined with rifampicin): 1.9 µg/mL
- MIC in combination ([5]; P. aeruginosa RW06, PT combined with rifampicin): 1.9 µg/mL
- MIC in combination ([5]; P. aeruginosa RW07, PT combined with rifampicin): 1.9 µg/mL
- MIC ([5]; P. aeruginosa RW01): 15.6 µg/mL
- MIC ([5]; P. aeruginosa RW02): 15.6 µg/mL
- MIC ([5]; P. aeruginosa RW03): 15.6 µg/mL
- MIC ([5]; P. aeruginosa RW04): 15.6 µg/mL
- MIC ([5]; P. aeruginosa RW05): 31.2 µg/mL
- MIC ([5]; P. aeruginosa RW06): 15.6 µg/mL
- MIC ([5]; P. aeruginosa RW07): 15.6 µg/mL
- MIC ([5]; PAO1, P. aeruginosa PAO1): 15.6 µg/mL
- reduction in biofilm-associated CFU [6]: 5 log

Structure (SMILES): NC[C@H]1O[C@H](O[C@H]2[C@H](O)[C@@H](O[C@H]3O[C@H](CO)[C@@H](O)[C@H](N)[C@H]3O)[C@H](N)C[C@@H]2N)[C@H](N)C[C@@H]1O [Tobramycin, tobramycin]
- P. aeruginosa growth, 5 μM [1]: −
- P. aeruginosa growth, 50 μM [1]: −
- activity against biofilm-associated cells ([2]; any concentration tested): neither tobramycin, polymyxin B/trimethoprim nor their combination displayed significant activity
- reduction in CFU at hour 4 [3]: 2 log
- reduction in CFU at 24 hr ([3]; 24 hours): 7 log
- S. aureus growth, 5 μM [4]: +
- S. aureus growth, 50 μM [4]: −
- MIC in combination ([5]; P. aeruginosa PAO1, PT combined with tobramycin): 0.12 µg/mL and 0.24 µg/mL
- MIC in combination ([5]; P. aeruginosa RW01, PT combined with tobramycin): 0.12 µg/mL
- MIC in combination ([5]; P. aeruginosa RW02, PT combined with tobramycin): 0.06 µg/mL
- MIC in combination ([5]; P. aeruginosa RW03, PT combined with tobramycin): 0.12 µg/mL
- MIC in combination ([5]; P. aeruginosa RW04, PT combined with tobramycin): 0.12 µg/mL
- MIC in combination ([5]; P. aeruginosa RW05, PT combined with tobramycin): 0.24 µg/mL
- MIC in combination ([5]; P. aeruginosa RW06, PT combined with tobramycin): 0.12 µg/mL
- MIC in combination ([5]; P. aeruginosa RW07, PT combined with tobramycin): 0.12 µg/mL
- MIC ([5]; P. aeruginosa RW01): 0.24 µg/mL
- MIC ([5]; P. aeruginosa RW02): 0.24 µg/mL
- MIC ([5]; P. aeruginosa RW03): 0.24 µg/mL
- MIC ([5]; P. aeruginosa RW04): 0.48 µg/mL
- MIC ([5]; P. aeruginosa RW05): 0.48 µg/mL
- MIC ([5]; P. aeruginosa RW06): 0.24 µg/mL
- MIC ([5]; P. aeruginosa RW07): 0.24 µg/mL
- MIC ([5]; PAO1, P. aeruginosa PAO1): 0.48 µg/mL
- reduction in biofilm-associated CFU [6]: 5 log

— US11096923B2, “Pharmaceutical composition containing polymyxin B/trimethoprim based therapeutics” (University of Rochester, priority 2016, dated 2021)
